Experimental data as given in patent publication US10682371B2, “Small molecule conjugates specifically activated in tumor microenvironment for targeting and use thereof” (priority 2014, dated 2020).
Where two headings read alike, the source gives them in different places.

Columns and labels:
Human liver cancer Hepg2 = assay: Multiple tumor models in nude mice: Hepg2; assay type: in vivo
Experimental: (§1) 1) Corresponding tumor cells were purchased from American type culture collection (ATCC) and identified according the specification provided by ATCC. Cells were cultivated in DMEM culture solution containing 10% fetal bovine serum at 37° C. and 5% CO2. The cells were passaged for every three days and cells within the 15th passage were used.
(§2) 2) Production of tumor. 5×10^6 corresponding cells were subcutaneously injected to the back of the nude mice. Mice were randomly grouped after the tumor reached at least 100 mm^3. Then treatment began and the day on which the treatment began was day 1.
(§3) 3) Course of treatment. […] The control group was administered by physiological saline. Animals were administered once weekly for three weeks.
(§4) 3) Course of treatment. According to the clinical application of A1, A1 was administered in a dose of ⅙ MTD, i.v., 17.6 μmol/kg. The control group was administered by physiological saline. Animals were administered once weekly for three weeks.
(§5) 3) Course of treatment. According to the clinical application of B1, B1 was administered in a dose of ⅙ MTD, i.v., 17.6 μmol/kg. The control group was administered by physiological saline. Animals were administered once weekly for three weeks.
as §3, §3

Human heart = assay type: biochemical; conditions: Human heart, 1 mg/ml
[1] = Solubility / formulation test in solvent 1 and solvent 2; assay type: physicochemical
Experimental: In Table 11, AAN, AANL and AANK indicate the linkage formed by small peptides in the compounds, A is Ala, N is Asn, L is Leu and K is Lys. […] The dissolution concentration is 10 mg/ml.
B1, B2, B3 and B4 and various control compounds were dried under vacuum, sterilized via gas sterilization, and separately packing in a sterile room. Before animal test, B1, B2, B3 and B4 were dissolved by solvent 1 (injectable water) or solvent 2 (30% alcohol, 70% injectable water) and diluted by injectable water to the desired concentration in sterile room. […] Change in solubility may greatly affect the formulation scheme of a drug.
D1, D2, D3, D4 and various control compounds were dried under vacuum, sterilized via gas sterilization, and separately packing in a sterile room. […] Change in solubility may greatly affect the formulation scheme of a drug.

tumor tissue homogenates = assay type: biochemical
Method in brief: (§6)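 Homogenized tissue (100 μg) is acidified to pH6.0. Test compound is then added at 1 mg/ml, and the mixture is held at 37° C so that the proteases present can activate it.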

[2] = system: Human fibrosarcoma HT-1080 tumor tissue homogenate; assay type: biochemical; conditions: Human fibrosarcoma HT-1080
Method in brief: as §6

BALB/C mice = assay: Maximum tolerated dose (MTD) / acute toxicity by single intravenous injection; conditions: for MTD (maximum tolerated dose): intravenous injection, one time
[3] = system: Human breast cancer MDA-MB435; assay: Multiple tumor models in nude mice: MDA-MB435; assay type: in vivo
Experimental: as §1, §2, §3, §4, §5, §3, §3

[4] = system: Human prostate cancer PC-3 cells / Panc-1 cells; assay: Tumor treatment in nude mice (PC-3 cells purchased, Panc-1 cells injected; Examples 22, 32, 42); assay type: in vivo; conditions: for Inhibition on tumor growth, in words: compared with parent drug group (same molar concentration) and control group; for Size of tumor (mm^3) Day 10 / inhibitory rate on tumor Day 10 / Size of tumor (mm^3) Day 24 / inhibitory rate on tumor Day 24: nude mice, IV once weekly for four weeks
Method in brief: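 Nude mice bearing subcutaneous Panc-1 xenografts (5×10^6 cells on the back) were randomized once tumors reached at least 100 mm^3. Drugs were given intravenously once weekly for four weeks, with saline controls. PC-3 cells were grown in DMEM/10% FBS and used within passage 15.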

4T1 cells = assay: BALB/C mice model for tumor metastasis (4T1, lung metastases); assay type: in vivo; conditions: for Inhibitory rate on metastasis / Number of metastasized tumor: IV every three days for 4 times; for Inhibitory effect on tumor metastasis, in words: compared with parent drug group and control group
Method in brief: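 Read-out: lung metastasis count under anatomical microscope after Bouin's staining, day 27. Treatment (IV every three days ×4, saline for controls) started after surgical removal of the ~1.5 cm subcutaneous tumor grown from 10^6 4T1 cells (passage ≤15) in BALB/C mice.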

[5] = S1′ i.v. 17.6 μmol/kg once weekly for three weeks
[6] = S1′-S4′ 24 mg/kg, Paclitaxel 8 mg/kg
[7] = 4T1, BALB/C mice, lung, day 27, S1′-S4′ 12 mg/kg, Paclitaxel 4 mg/kg
[8] = Table 41, i.v. 17.6 μmol/kg once weekly for three weeks
[9] = single intravenous injection, 125 mg/kg, 10 BALB/C mice per group
[10] = single intravenous injection, 150 mg/kg, 10 BALB/C mice per group
[11] = single intravenous injection, 175 mg/kg, 10 BALB/C mice per group
[12] = single intravenous injection, 200 mg/kg, 10 BALB/C mice per group
[13] = Table 38, B1-B4 25 mg/kg, Docetaxel […]
[14] = Table 40, BALB/C mice, 4T1, lung metastases day 27, B1-B4 17.6 μmol/kg, Docetaxel 3 μmol/kg
[15] = Table 51, 25 mg/kg once weekly for three weeks
[16] = Table 50, BALB/C mice, 4T1, lung metastases day 27, D1-D4 25 mg/kg, Docetaxel 4.2 mg/kg

With `COCCOCC(=O)N[C@H](C)C(=O)N[C@H](C)C(=O)N[C@H](CC(N)=O)C(=O)Nc1ccc(COC(=O)OC(C(=O)OC2C[C@@]3(O)C(OC(=O)c4ccccc4)[C@@H]4C5(OC(C)=O)COC5C[C@H](O)[C@@]4(C)C(=O)[C@H](OC(C)=O)C(=C2C)C3(C)C)[C@@H](NC(=O)c2ccccc2)c2ccccc2)cc1` (stereo in doubt) [S1′, 2-(2-methoxyethoxy) acetylamino-L-Ala-L-Ala-L-Asn-p-amino-benzyl-paclitaxel] the “inhibitory rate on tumor (Day 26)” value (Human liver cancer Hepg2; [5]) was 84.3%, the “Activation ratio (%) in homogenates from different tumor tissues” value (Human heart; 37°) was “none” and the “solubility in Solvent 1” value ([1]; Solvent 1 injectable water, dissolution concentration 10 mg/ml) was “soluble”. The “solubility in Solvent 2” value ([1]; Solvent 2: 50% injectable water, 45%-49% propanediol, 1%-5% Tween80, dissolution concentration 10 mg/ml) was “soluble”, the “Concentration achieved, completely dissolved in both solvent 1 and solvent 2” value ([1]; solvent 1 injectable water, solvent 2 50% injectable water, 42%-49% propanediol, 1%-8% Tween80) was 10000 µg/mL and the “Activation efficiency by tumor tissue, in words” value (tumor tissue homogenates) was “highest activation efficiency among the screened compounds”. The “Activation ratio (%) in homogenates from different tumor tissues” value ([2]; 100 μg acidized homogenate pH6.0, 1 mg/ml, 37°) was 74.7%, the “Behaviors and death observed” value (BALB/C mice; BALB/C mice receiving 90 mg/kg injection) was “no pilo-erection, hair tousle and lackluster, lethargy, stoop, irritable reaction and death” and the “MTD (maximum tolerated dose)” value (BALB/C mice; BALB/C mice) was “about 90 mg/kg”. For the same molecule, the “Mortality rate (%)” value (BALB/C mice; BALB/C mice, single iv, 125 mg/kg) was 0%, the “Number of dead animal” value (BALB/C mice; BALB/C mice, single iv, 125 mg/kg, 10 animals) was 0 and the “Mortality rate (%)” value (BALB/C mice; BALB/C mice, single iv, 150 mg/kg) was 0%. The “Number of dead animal” value (BALB/C mice; BALB/C mice, single iv, 150 mg/kg, 10 animals) was 0, the “Mortality rate (%)” value (BALB/C mice; BALB/C mice, single iv, 175 mg/kg) was 0% and the “Number of dead animal” value (BALB/C mice; BALB/C mice, single iv, 175 mg/kg, 10 animals) was 0. For the same molecule, the “Mortality rate (%)” value (BALB/C mice; BALB/C mice, single iv, 200 mg/kg) was 10%, the “Number of dead animal” value (BALB/C mice; BALB/C mice, single iv, 200 mg/kg, 10 animals) was 1 and the “inhibitory rate on tumor (Day 26)” value [3, 5] was 90.7%. The “Inhibition on tumor growth, in words” value [4] was “greatly improved”, the “Size of tumor (mm^3) Day 10” value [4, 6] was 76.42 ± 14.96 mm^3 and the “inhibitory rate on tumor Day 10” value [4, 6] was 35.7%. The “Size of tumor (mm^3) Day 24” value [4, 6] was 84.62 ± 45.94 mm^3, the “inhibitory rate on tumor Day 24” value [4, 6] was 66.1% and the “Inhibitory rate on metastasis” value (4T1 cells; [7]) was 99.2%. The “Number of metastasized tumor” value (4T1 cells; [7]) was 2 ± 3 and the “Inhibitory effect on tumor metastasis, in words” value (shortened to “Inhibitory effect”) (4T1 cells) was “greatly improved”.
In the case of `COCCOCC(=O)NCCCC[C@H](NC(=O)COCCOC)C(=O)N[C@H](C)C(=O)N[C@H](C)C(=O)N[C@H](CC(N)=O)C(=O)Nc1ccc(COC(=O)OC(C(=O)OC2C[C@@]3(O)[C@@H](OC(=O)c4ccccc4)[C@H]4[C@](C)(C(=O)[C@H](O)C(=C2C)C3(C)C)[C@@H](O)CC2OC[C@]24OC(C)=O)[C@@H](NC(=O)OC(C)(C)C)c2ccccc2)cc1` (stereo partly drawn) [Compound B1], the “inhibitory rate on tumor (Day 26)” value (Human liver cancer Hepg2; [8]) is reported as 81.56%, the “activation efficiency (%)” value (Human heart; Table 34, acidized homogenate, Docetaxel release by HPLC) is reported as 12.2% and the “solubility in Solvent 1” value ([1]; solvent 1 (injectable water), Table 33, water-soluble Docetaxel series) is reported as “insoluble”. The “solubility in Solvent 2” value ([1]; solvent 2 (30% alcohol, 70% injectable water), Table 33, water-soluble Docetaxel series) was “soluble”, the “activation efficiency (%)” value ([2]; Table 34, 1 mg/ml, 100 μg acidized homogenate, Docetaxel release by HPLC) was 79.1% and the “Behaviors and death observed” value (BALB/C mice; BALB/C mice receiving 175 mg/kg injection) was “no pilo-erection, hair tousle and lackluster, lethargy, stoop, irritable reaction and death”. The “MTD (maximum tolerated dose)” value (BALB/C mice; BALB/C mice) was “about 150 mg/kg”, the “Mortality rate (%)” value (BALB/C mice; [9]) was 0% and the “Number of dead animal” value (BALB/C mice; [9]) was 0. For the same molecule, the “Mortality rate (%)” value (BALB/C mice; [10]) was 0%, the “Number of dead animal” value (BALB/C mice; [10]) was 0 and the “Mortality rate (%)” value (BALB/C mice; [11]) was 0%. The “Number of dead animal” value (BALB/C mice; [11]) was 0, the “Mortality rate (%)” value (BALB/C mice; [12]) was 20% and the “Number of dead animal” value (BALB/C mice; [12]) was 2. The “inhibitory rate on tumor (Day 26)” value [3, 8] was 78.84%, the “Size of tumor (mm^3) Day 10” value [4, 13] was 92.4 ± 59.66 mm^3 and the “inhibitory rate on tumor Day 10” value [4, 13] was 67.8. For the same molecule, the “Size of tumor (mm^3) Day 24” value [4, 13] was 128.45 ± 105.56 mm^3, the “inhibitory rate on tumor Day 24” value [4, 13] was 66.3 and the “Inhibition on tumor growth, in words” value [4] was “greatly improved”. For the same molecule, the “Inhibitory rate on metastasis” value (4T1 cells; [14]) was 96.0, the “Number of metastasized tumor” value (4T1 cells; [14]) was 5 ± 3 and the “Inhibitory effect” value (4T1 cells) was “greatly improved”.
In the case of `COCCOCC(=O)N[C@H](C)C(=O)N[C@H](C)C(=O)N[C@H](CC(N)=O)C(=O)Nc1ccc(COC(=O)OC(C(=O)OC2C[C@@]3(O)[C@@H](OC(=O)c4ccccc4)[C@H]4[C@](C)(C(=O)[C@H](O)C(=C2C)C3(C)C)[C@@H](O)CC2OC[C@]24OC(C)=O)[C@@H](NC(=O)OC(C)(C)C)c2ccccc2)cc1` (stereo partly drawn) [Compound D1, 2-(2-methoxyethoxy) acetyl-L-Ala-L-Ala-L-Asn-4-amino benzyl-Docetaxel], the “inhibitory rate on tumor (Day 26)” value (Human liver cancer Hepg2; [15]) is reported as 75.7%, the “solubility in Solvent 1” value ([1]; Table 44, second column (head repeats Solvent 1), text: solvent 2 (45% alcohol, 55% injectable water)) is reported as “soluble” and the “solubility in Solvent 1” value ([1]; solvent 1 (injectable water), Table 44, first column, Docetaxel D series) is reported as “insoluble”. For the same molecule, the “Activation efficiency by tumor tissue, in words” value (tumor tissue homogenates) was “highest activation efficiency”, the “Activation ratio (%) in homogenates from different tumor tissues” value ([2]; Table 45, 1 mg/ml, 100 μg acidized homogenate, Docetaxel release by HPLC) was 77.23% and the “Behaviors and death observed” value (BALB/C mice; BALB/C mice receiving 150 mg/kg injection) was “no pilo-erection, hair tousle and lackluster, lethargy, stoop, irritable reaction and death”. For the same molecule, the “MTD (maximum tolerated dose)” value (BALB/C mice; BALB/C mice) was “about 150 mg/kg”, the “Mortality rate (%)” value (BALB/C mice; [9]) was 0% and the “Number of dead animal” value (BALB/C mice; [9]) was 0. For the same molecule, the “Mortality rate (%)” value (BALB/C mice; [10]) was 0%, the “Number of dead animal” value (BALB/C mice; [10]) was 0 and the “Mortality rate (%)” value (BALB/C mice; [11]) was 0%. The “Number of dead animal” value (BALB/C mice; [11]) was 0, the “Mortality rate (%)” value (BALB/C mice; [12]) was 10% and the “Number of dead animal” value (BALB/C mice; [12]) was 1. For the same molecule, the “inhibitory rate on tumor (Day 26)” value [3, 15] was 93.5%, the “Inhibitory rate on metastasis” value (4T1 cells; [16]) was 95.2 and the “Number of metastasized tumor” value (4T1 cells; [16]) was 5 ± 3. The “Inhibitory effect” value (4T1 cells) was “greatly improved”.
